Like-named read-outs stand apart in the source and are kept apart here.
Experiments:
PKB-PIF = molecular target: T1, PKB-PIF (Homo sapiens, UniProt P31751); assay: Measurement of PKB kinase inhibitory activity (IC50), radiometric filter plate assay; format: biochemical
T1 construct: fusion partner; made in house
Description: The inhibition of protein kinase B (PKB) activity by compounds can be determined essentially as described by Andjelkovic et al. (Mol. Cell. Biol. 19, 5061-5072 (1999)) but using a fusion protein described as PKB-PIF and described in full by Yang et al (Nature Structural Biology 9, 940-944 (2002)). The protein is purified and activated with PDK1 as described by Yang et al. The peptide AKTide-2T (H-A-R-K-R-E-R-T-Y-S-F-G-H-H-A-OH) obtained from Calbiochem (#123900) is used as a substrate. A final concentration of 0.6 nM enzyme is used in a buffer that includes 20 mM MOPS pH 7.2, 30 μM ATP/γ^33P-ATP and 25 μM substrate. Compounds are added in DMSO solution to a final DMSO concentration of 2.5%. The reaction is allowed to proceed for 20 minutes before addition of excess orthophosphoric acid to quench activity. The reaction mixture is transferred to a phosphocellulose filter plate where the peptide binds and the unused ATP is washed away. After washing, scintillant is added and the incorporated activity measured by scintillation counting.
The % inhibition of the PKB activity is calculated and plotted in order to determine the concentration of test compound required to inhibit 50% of the PKB activity (IC50).

PKA catalytic domain = molecular target: T2, PKA catalytic domain (Homo sapiens, UniProt P17612); assay: Measurement of PKA kinase inhibitory activity (IC50), radiometric filter plate assay; format: biochemical; conditions: 1 nM enzyme, 40 μM ATP, 20 minutes
T2 construct: using the PKA catalytic domain from Upstate Biotechnology (#14-440); purchased Upstate Biotechnology 14-440
Description: Compounds of the invention can be tested for PK inhibitory activity using the PKA catalytic domain from Upstate Biotechnology (#14-440) and the 9 residue PKA specific peptide ([…]), also from Upstate Biotechnology (#12-257), as the substrate. A final concentration of 1 nM enzyme is used in a buffer that includes 20 mM MOPS pH 7.2, 40 μM ATP/γ^33P-ATP and […] substrate. Compounds are added in dimethylsulphoxide (DMSO) solution to a final DMSO concentration of 2.5%. The reaction is allowed to proceed for 20 minutes before addition of excess orthophosphoric acid to quench activity. Unincorporated γ^33P-ATP is then separated from phosphorylated proteins on a Millipore MAPH filter plate. The plates are washed, scintillant is added and the plates are then subjected to counting on a Packard Topcount.
The % inhibition of the PKA activity is calculated and plotted in order to determine the concentration of test compound required to inhibit 50% of the PKA activity (IC50).

[1] = 0.6 nM enzyme, 30 μM ATP, 25 μM AKTide-2T substrate, 20 minutes, read-out: IC50 (PKB activity)

T1 sequence (P31751 with tags, fused parts or gaps limits assumed): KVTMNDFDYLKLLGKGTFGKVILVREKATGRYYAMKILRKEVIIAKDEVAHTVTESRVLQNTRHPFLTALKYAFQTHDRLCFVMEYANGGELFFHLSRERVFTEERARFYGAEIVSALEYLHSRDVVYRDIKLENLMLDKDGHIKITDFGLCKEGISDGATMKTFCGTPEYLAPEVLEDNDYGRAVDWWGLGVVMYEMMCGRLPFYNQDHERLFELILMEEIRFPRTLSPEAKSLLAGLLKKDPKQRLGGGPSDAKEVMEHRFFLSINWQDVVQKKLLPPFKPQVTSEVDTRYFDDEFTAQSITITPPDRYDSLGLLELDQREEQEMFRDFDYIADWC

Structure (SMILES)	IC50 (PKB-PIF; [1]) [µM]	IC50 (PKA catalytic domain) [µM]	IC50 (PKB-PIF) [µM]
NC(=O)C1CCN(c2ncnc3[nH]cnc23)CC1 [Example 11, 1-(9H-Purin-6-yl)piperidine-4-carboxylic Acid Amide]	< 50	–	–
NCCc1cccc(-c2ncnc3[nH]cnc23)c1 [Example 10, 2-(3-(9H-purin-6-yl)phenyl)ethylamine]	–	–	< 10
NCCCOc1cccc(-c2ncnc3[nH]cnc23)c1 [Example 16, 3-[3-(9H-Purin-6-yl)-phenoxy]-propylamine]	< 10	–	–
CNCc1ccc(-c2ncnc3[nH]cnc23)cc1 [Example 6, Methyl-(4-(9H-purin-6-yl)benzyl)amine]	< 10	< 10	–
CNCc1cccc(-c2ncnc3[nH]cnc23)c1 [Example 7, Methyl-(3-(9H-purin-6-yl)benzyl)amine]	< 10	< 10	–
NCC1CCN(c2ncnc3[nH]cnc23)CC1 [Example 12, C-[1-(9H-Purin-6-yl)piperidin-4-yl]methylamine]	< 10	< 10	–
NC(CCNc1ncnc2[nH]cnc12)c1ccc(Cl)cc1 (centres unmarked) [Example 5, 1-(4-Chlorophenyl)-N^3-(9H-purin-6-yl)propane-1,3-diamine]	< 10	< 10	–
CNCCCNc1ncnc2[nH]cnc12 [Example 1, N-Methyl-N′-(9H-purin-6-yl)-propane-1,3-diamine]	< 10	–	–
NC(CCNc1ncnc2[nH]cnc12)c1ccc(F)cc1 (centres unmarked) [Example 3, 1-(4-Fluorophenyl)-N^3-(9H-purin-6-yl)propane-1,3-diamine]	< 10	–	–
CNCCCNc1ncnc2[nH]c(=O)[nH]c12 [Example 2, 6-(3-Methylamino-propylamino)-7,9-dihydro-purin-8-one]	< 10	–	–
NC(CCNc1ncnc2[nH]c(=O)[nH]c12)c1ccc(F)cc1 (centres unmarked) [Example 4, 6-[3-Amino-3-(4-fluorophenyl)propylamino]-7,9-dihydropurin-8-one]	< 10	< 150	–
NCCc1ccc(-c2ncnc3[nH]cnc23)cc1 [Example 9, 2-(4-(9H-Purin-6-yl)phenyl)ethylamine]	< 50	–	–
NC(c1ccccc1)C1CCN(c2ncnc3[nH]c(=O)[nH]c23)CC1 (centres unmarked) [Example 13, 6-[4-(Aminophenylmethyl)piperidin-1-yl]-7,9-dihydropurin-8-one]	< 10	–	–
NC(c1ccc(Cl)cc1)C1CCN(c2ncnc3[nH]c(=O)[nH]c23)CC1 (centres unmarked) [Example 14, 6-[4-(Amino(4-chlorophenyl)methyl)piperidin-1-yl]-7,9-dihydropurin-8-one]	< 10	< 10	–
N#CCc1ccc(-c2ncnc3[nH]cnc23)cc1 [Example 8, (4-(9H-purin-6-yl)phenyl)acetonitrile]	< 50	–	–
NCC1CCN(c2ncnc3[nH]c(=O)[nH]c23)CC1 [Example 15, 6-(4-Aminomethylpiperidin-1-yl)-7,9-dihydropurin-8-one]	< 10	–	–
NCC1CCN(c2ncnc3[nH]ncc23)CC1 [Example 17, C-[1-(1H-Pyrazolo[3,4-d]pyrimidin-4-yl)-piperidin-4-yl]-methylamine]	< 10	< 10	–

Further lines, with some results ahead:

IC50 (PKB-PIF; [1]) [µM]	IC50 (PKA catalytic domain) [µM]	Structure (SMILES)	IC50 (PKB-PIF) [µM]
< 10	–	NC(c1ccc(Cl)cc1)c1ccc(-c2ncnc3[nH]cnc23)cc1 (centres unmarked) [Example 28, C-(4-Chloro-phenyl)-C-[4-(9H-purin-6-yl)-phenyl]-methylamine]	–
< 10	–	Clc1ccc(C2(c3ccc(-c4ccnc5[nH]ccc45)cc3)CCNCC2)cc1 [Example 27, 4-{4-[4-(4-Chloro-phenyl)-piperidin-4-yl]-phenyl}-1H-pyrrolo[2,3-b]pyridine]	–
< 10	< 10	NC(c1ccc(Cl)cc1)C1CCN(c2ncnc3[nH]ccc23)CC1 (centres unmarked) [Example 25, C-4-Chlorophenyl-C-[1-(7H-pyrrolo[2,3-d]pyrimidin-4-yl)-piperidin-4-yl]-methylamine]	–
< 10	< 10	NCC1CCN(c2ncnc3[nH]ccc23)CC1 [Example 18, C-[1-(7H-Pyrrolo[2,3-d]pyrimidin-4-yl)-piperidin-4-yl]-methylamine]	–
< 10	< 10	CNCC(c1ccc(Cl)cc1)c1ccc(-c2ccnc3[nH]ccc23)cc1 (centres unmarked) [Example 30, {2-(4-Chloro-phenyl)-2-[4-(1H-pyrrolo[2,3-b]pyridin-4-yl)-phenyl]-ethyl}-methyl-amine]	–
< 10	–	NC(c1ccccc1)c1ccc(-c2ncnc3[nH]cnc23)cc1 (centres unmarked) [Example 19, C-Phenyl-C-[4-(9H-purin-6-yl)-phenyl]-methylamine]	–
< 10	–	NC(c1ccc(Cl)cc1)C1CCN(c2ncnc3[nH]cnc23)CC1 (centres unmarked) [Example 26, C-(4-Chloro-phenyl)-C-[1-(9H-purin-6-yl)-piperidin-4-yl]-methylamine]	–
< 10	–	NC(c1ccccc1)C1CCN(c2ncnc3[nH]ccc23)CC1 (centres unmarked) [Example 24, C-Phenyl-C-[1-(7H-pyrrolo[2,3-d]pyrimidin-4-yl)-piperidin-4-yl]-methylamine]	–
< 10	< 10	NCC1CCCN(c2ncnc3[nH]ccc23)C1 (centres unmarked) [Example 31, C-[1-(7H-Pyrrolo[2,3-d]pyrimidin-4-yl)piperidin-3-yl]methylamine]	–
< 10	< 10	Clc1ccc(C2(c3ccc(-c4ncnc5[nH]ccc45)cc3)CCNCC2)cc1 [Example 23, 4-{4-[4-(4-Chloro-phenyl)-piperidin-4-yl]-phenyl}-7H-pyrrolo[2,3-d]pyrimidine]	–
< 10	< 10	NC(c1ccc(Cl)cc1)C1CCN(c2ccnc3[nH]ccc23)CC1 (centres unmarked) [Example 29, C-(4-Chlorophenyl)-C-[1-(1H-pyrrolo[2,3-b]pyridin-4-yl)piperidin-4-yl]methylamine]	–
< 10	–	NC(c1ccc(Cl)cc1)C1CCN(c2ccnc3[nH]ccc23)CC1 (single isomer, unassigned) [Example 32, C-(4-Chlorophenyl)-C-[1-(1H-pyrrolo[2,3-b]pyridin-4-yl)piperidin-4-yl]methylamine]	–
< 10	< 10	Clc1ccc(C2(c3ccc(-c4ncnc5[nH]cnc45)cc3)CCNCC2)cc1 [Example 22, 6-(4-[4-(4-Chlorophenyl)-piperidin-4-yl)-phenyl)-9H-purine]	–
< 50	–	NC(Cc1ccccc1)C1CCN(c2ncnc3[nH]c(=O)[nH]c23)CC1 (centres unmarked) [Example 21, 6-[4-(1-Amino-2-phenylethyl)piperidin-1-yl]-7,9-dihydropurin-8-one]	–
< 10	< 10	NC(Cc1ccccc1)c1ccc(-c2ncnc3[nH]cnc23)cc1 (centres unmarked) [Example 20, 2-Phenyl-1-[4-(9H-purin-6-yl)-phenyl]-ethylamine]	–

Reference: patent US20090099213A1, “Ortho-Condensed Pyridine and Pyrimidine Derivatives (e.g., Purines) as Protein Kinases Inhibitors” (Astex Therapeutics Limited, priority 2004, published 2009)
